The source of these data is US20150164762A1, “USE OF ETHANOLAMINE PHOSPHATE” (priority 2012, published 2015).

What all share (type): cell-based, human
The subject of one data set is TNF-α. Nature of the data set: ELISA of TNF-α secreted from THP-1 cells, with or without LPS. The method, then:
(§1) Human monocytic cultured THP-1 cells were cultured logarithmically as follows in 10% FBS RPMI-1640 growth culture. Cells were seeded to 4×10^5/ml on a 24-well plate (500 μl/well), additional growth culture containing EP was added, and finally the EP concentration was adjusted to the target concentration (0.1 mM, 1 mM). 2 hours after EP administration, further growth medium containing lipopolysaccharides (LPS) was added, and adjusted to concentrations of 0.1 μg/ml and 1 μg/ml.
(§2) 4 hours and 24 hours after lipopolysaccharide administration, the medium was collected, the cells were precipitated by centrifugation, and the supernatant was used as an ELISA sample. As in the Singh et al. report, the inflammatory cytokine TNF-α and the chemokine IL-8, which attracts inflammatory cells, were used as ELISA measurement indicators.

The next data set has as its system HEKa cells. Nature of the data set: WST-8 proliferation test, primary normal keratinocytes (HEKa). The following applies: Epilife basal medium, 21 days. The procedure: HEKa cells (Takara Bio) were seeded to 2×10^4 cells/cm^2 on a 48-well plate. Epilife basal medium (M-EPI-500-CA, Invitrogen) with HKGS Kit (S-001-K, Invitrogen) as an added factor was used as the medium. This HKGS Kit contains bovine pituitary extract, bovine insulin, hydrocortisone, bovine transferrin and human EGF.
For orientation: Formazan colour is commonly taken as a measure of viable cells.

Another data set concerns caspase 3/7. The data set can be described thus: Serum-free stress-induced caspase 3/7 activity (Caspase-Glo3/7 assay) per cell. The following applies: 0% FBS, 24 hours. The procedure:
After medium replacement, 10 μl per well of EP or FBS solution was added. After 24 hours, a proliferation test (WST-8 assay) and caspase 3/7 assay (Caspase-Glo3/7 assay, Promega) were performed. […] Caspase 3/7 activity was measured by a luminescence test, the blank average was subtracted, and this was divided by the corrected absorbance (corresponding to relative cell number) from the WST-8 assay to calculate the caspase 3/7 activity per cell.

Another data set concerns IL-8. The data set can be described thus: ELISA of IL-8 secreted from THP-1 cells, with or without LPS. The method, then: as §1, §2
A general note: ELISA stands for enzyme-linked immunosorbent assay.

Data set [1] relates to BEAS-2B. The data set can be described thus: Suppression of the proliferative effect of EP by a MEK 1/2 inhibitor (WST-8). The note with it: 250 μM EP, no MEK 1/2 inhibitor, 0.1% FBS, 72 hours.
The test system of data set [2] is BEAS-2B. The data set can be described thus: Proliferative effects of EP and its metabolic derivatives (WST-8). The following applies: 0.1% FBS, 72 hours.
In data set [3] the test system is BEAS-2B. The data set can be described thus: Cell toxicity of H2O2 after EP pre-treatment (WST-8 assay). The procedure:
Cells of the normal airway epithelial cell line BEAS-2B were seeded at a density of 1×10^5/cm^2 on a 96-well plate, and after 24 hours the medium was replaced with 0.5% FBS RPMI 1640 containing EP at final concentrations of 0, 250 and 500 μM. 24 hours after medium replacement the medium was replaced with 0.5% FBS RPMI-1640, and serially diluted H2O2 was administered (n=4). 24 hours after H2O2 administration a cell toxicity test WST-8 assay (Cell Counting Kit-8, Dojindo) was performed. For the data analysis, the 50% cell death concentration EC50 was calculated with GraphPad Prism 5 statistical analysis software.

The test system of another data set is A549. Nature of the data set: WST-8 proliferation test, A549 cancer cells. The note with it: 0% FBS, 96 hours, even at high concentrations. The method, then: (§3) 0% FBS RPMI-1640 was used as the medium. 24 hours after seeding the cells were washed with 20 μl per well of PBS, and the medium was replaced with 0% FBS RPMI-1640. Following medium replacement, EP solution with 10 times the set concentration was added 10 μl per well, and a proliferation test (WST-8 assay) was performed 96 hours after addition of EP.

A further data set has as its system HEK 293. Nature of the data set: WST-8 proliferation test, HEK 293 immortalized model cells. The following applies: 0% FBS, 96 hours, even at high concentrations. The procedure:
as §3

Data set [4] concerns BEAS-2B. The data set can be described thus: Permeability test, 4-kilodalton fluorescent dextran through BEAS-2B cell sheet (Papp). The following applies: EP 1 mM, 7 days after seeding. The method, then:
Cells of the established normal human airway epithelial cell line BEAS-2B were seeded to 1×10^5 cells/cm^2 on a cell culture insert (353104, BD Falcon) (FIG. 14). 10% FBS RPMI-1640 was used as the medium. The amount of medium was 200 μl on the insert side and 750 μl on the well side. Beginning the next day, substitution/medium replacement was performed once a day with 1% FBS RPMI-1640 prepared with the following 4 reagent conditions, and transepithelial electrical resistance (TER) was measured with MilliCell (Millipore). • Condition 1: Control • Condition 2: EP 1 mM • Condition 3: Dexamethasone 1 μM (dexamethasone (Dex): positive control substance known to enhance barrier function) • Condition 4: EP 1 mM and Dex 1 μM
7 days after cell seeding a permeability test was performed as follows.
A 4-kilodalton fluorescent dextran molecule (Sigma) was added to the cell culture insert to a concentration of 0.1 mg/ml, 20 μl of the medium on the well side was removed after 1 hour, and the amount of permeating fluorescent dextran was estimated from the fluorescent strength at each concentration. The permeation rate Papp of a substance from the insert side to the well side is normally determined by the following formula.
Papp=(volume of medium on well side/insert area×initial insert concentration)×(altered concentration on well side/elapsed time)

Setting [5] is: 4 hours and 24 hours of stimulus, EP 0.1 mM, 1 mM.
[6] abbreviates: cells not treated with LPS, 26 hours, 1 mM EP.

Each structure is given as a SMILES string.

Take `NCCOP(=O)(O)O` [EP, Ethanolamine phosphate]: the “secretion of LPS-induced TNF-α” value in the data set on TNF-α (setting [5]) is recorded as “dose-dependently suppressed”. Also, in the data set on TNF-α (LPS 1 μg/ml, 24 hours of stimulus, EP 1 mM), the “amount of TNF-α induced by LPS stimulus” value is reported as “about 70 pg/ml”. For the same molecule, the “TNF-α secretion, reduced to % of untreated” value in the data set on TNF-α (setting [6]) is “about 78%”. Besides, the growth-stimulating effect entry with HEKa cells is listed as “growth-stimulating effect”. Also, the “minimum concentration giving roughly the maximum growth-stimulating effect” value with HEKa cells is 15.6 µM. Moreover, in the data set on caspase 3/7, the “FBS concentration whose effect EP 1000 μM corresponds to (regression curve)” value was found to be 2.2%. Moreover, the “caspase 3/7 activity per cell” value with caspase 3/7 (1000 μM) was “about 0.72 fold”. Further, the “secretion of LPS-induced IL-8” value in the data set on IL-8 (setting [5]) was “dose-dependently suppressed”. Besides, in the data set with IL-8 (setting [6]), the “IL-8 secretion, reduced to % of untreated” value was “about 43%”. For the same molecule, the cell proliferation entry in the data set on BEAS-2B [1] is listed as “roughly 3 fold”. The proliferative action entry in the data set with BEAS-2B [2] is “dose-dependent proliferative action”. In addition, the “Toxity reduction rate % (H2O2 cytotoxicity)” value in the data set with BEAS-2B [3] (EP pre-treatment 250 uM) was found to be 33%; in the data set on BEAS-2B [3] (EP pre-treatment 500 uM), 28%. Moreover, the “reduction of the cytotoxicity of H2O2” value in the data set with BEAS-2B [3] (pre-treatment with 250 to 500 μM of EP) is listed as “about 30%”. Further, the cell proliferation ability entry in the data set on A549 and in the data set on HEK 293 was “absolutely no cell proliferation ability” each time. The “permeation rate Papp of fluorescent dextran, lower than control” value with BEAS-2B [4] is recorded as 25%.
